{
  "source": "ChEMBL document CHEMBL1147492",
  "about": "“Small molecule biaryl FSH receptor agonists. Part 1: Lead discovery via encoded combinatorial synthesis” (Bioorg Med Chem Lett, 2004)",
  "data": [
    {"biological_target": "T1, Follicle-stimulating hormone receptor (Homo sapiens, UniProt P23945)", "T1 sequence (P23945 whole entry)": "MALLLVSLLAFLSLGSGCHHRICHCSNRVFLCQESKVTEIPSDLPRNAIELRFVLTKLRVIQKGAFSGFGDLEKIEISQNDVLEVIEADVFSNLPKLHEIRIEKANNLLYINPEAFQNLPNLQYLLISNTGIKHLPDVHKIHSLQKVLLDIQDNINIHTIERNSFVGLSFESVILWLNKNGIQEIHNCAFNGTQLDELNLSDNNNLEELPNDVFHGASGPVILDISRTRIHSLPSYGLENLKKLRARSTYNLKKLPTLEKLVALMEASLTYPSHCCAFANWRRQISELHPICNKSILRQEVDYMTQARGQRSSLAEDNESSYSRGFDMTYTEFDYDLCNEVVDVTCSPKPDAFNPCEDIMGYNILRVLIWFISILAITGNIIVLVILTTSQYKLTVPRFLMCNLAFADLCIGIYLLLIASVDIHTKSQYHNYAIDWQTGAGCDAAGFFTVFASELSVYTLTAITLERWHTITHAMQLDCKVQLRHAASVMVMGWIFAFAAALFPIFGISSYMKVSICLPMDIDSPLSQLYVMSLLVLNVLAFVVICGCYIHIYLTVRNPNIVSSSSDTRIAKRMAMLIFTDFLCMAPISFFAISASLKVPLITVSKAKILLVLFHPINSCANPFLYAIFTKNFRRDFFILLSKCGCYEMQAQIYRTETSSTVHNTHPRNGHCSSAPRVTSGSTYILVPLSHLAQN", "assay": "Agonistic activity against Follicle stimulating hormone receptor expressed in chinese hamster ovary cells(CHO)", "format": "functional, cell-based", "units": {"EC50": "nM"}, "values": [
      {"smiles": "CCCCCCNC(=O)CN1CC(=O)N(C)[C@@H](Cc2ccc(-c3cc(OC)c(OC)c(OC)c3)cc2)C1=O", "EC50": 3000},
      {"smiles": "CCCCCCNC(=O)CN1C(=O)C(Cc2ccc(-c3ccc(CN(CCCC)C(=O)NC)cc3)cc2)N(C)C1=O", "note": "(stereo not given)", "EC50": 2500},
      {"smiles": "CCCCCNC(=O)CN1CC(=O)N(C)[C@@H](Cc2ccc(-c3cccc(CN(CCCC)C(=O)NC)c3)cc2)C1=O", "EC50": 1700},
      {"smiles": "CCCCOC(=O)N(CC(=O)NCC1CC1)Cc1ccc(-c2ccccc2CN(CCCC)C(C)=O)cc1", "EC50": 3900},
      {"smiles": "CCCCN(Cc1cccc(-c2ccc(C(=O)NC3CCCCN(CC(=O)NCCc4ccc(Cl)cc4)C3=O)cc2)c1)C(=O)NC", "note": "(stereo not given)", "EC50": 260}
    ]}
  ]
}
